In ChEMBL document CHEMBL1201862, “PubChem BioAssay data set” (2004):
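1) Cells in 96-well plates. 2) Compound, 48 h, 5 concentrations. 3) Linear interpolation between surrounding doses. 4) Unreached endpoint = highest concentration. GI50 = concentration required for 50% inhibition of growth.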 The source made the active and inactive calls. Cut-off read from the data, not from the text of the source: active = GI50 up to about 1.1 µM and inactive = higher.

Assays:
Experiment in all cases: NCI anticancer screen, dose series, 48 h
SF-295 = tested on: SF-295
KM12 = tested on: KM12
DMS-273 = tested on: DMS-273
RPMI-8226 = tested on: RPMI-8226
M14 = tested on: M14
CAKI-1 = tested on: CAKI-1
SK-OV-3 = tested on: SK-OV-3
SK-MEL-5 = tested on: SK-MEL-5
SNB-75 = tested on: SNB-75
TK-10 = tested on: TK-10
SN12C = tested on: SN12C
LXFL 529 = tested on: LXFL 529
IGROV-1 = tested on: IGROV-1
DLD-1 = tested on: DLD-1
NCI-H226 = tested on: NCI-H226
SF-268 = tested on: SF-268
SR = tested on: SR
SNB-19 = tested on: SNB-19
NCI-H23 = tested on: NCI-H23
HL-60 = tested on: HL-60
SK-MEL-28 = tested on: SK-MEL-28
CCRF-CEM = tested on: CCRF-CEM
HCT-116 = tested on: HCT-116
HOP-62 = tested on: HOP-62
HT-29 = tested on: HT-29
SNB-78 = tested on: SNB-78
A549 = tested on: A549
SK-MEL-2 = tested on: SK-MEL-2
Malme-3M = tested on: Malme-3M
HCT-15 = tested on: HCT-15
NCI-H460 = tested on: NCI-H460
OVCAR-8 = tested on: OVCAR-8
OVCAR-4 = tested on: OVCAR-4
A498 = tested on: A498
786-0 = tested on: 786-0
SW-620 = tested on: SW-620
UACC-62 = tested on: UACC-62
DMS-114 = tested on: DMS-114
COLO 205 = tested on: COLO 205
NCI-H522 = tested on: NCI-H522
UACC-257 = tested on: UACC-257
ACHN = tested on: ACHN
M19-MEL = tested on: M19-MEL
EKVX = tested on: EKVX
KM-20L2 = tested on: KM-20L2
MOLT-4 = tested on: MOLT-4
OVCAR-5 = tested on: OVCAR-5
HOP-92 = tested on: HOP-92
UO-31 = tested on: UO-31
OVCAR-3 = tested on: OVCAR-3
SF-539 = tested on: SF-539
U-251 = tested on: U-251
LOX IMVI = tested on: LOX IMVI
RXF 393 = tested on: RXF 393
T47D = tested on: T47D
PC-3 = tested on: PC-3
MDA-MB-231 = tested on: MDA-MB-231
DU-145 = tested on: DU-145
MDA-N = tested on: MDA-N
BT-549 = tested on: BT-549
Hs-578T = tested on: Hs-578T
MCF7 = tested on: MCF7
K562 = tested on: K562
NCI/ADR-RES = tested on: NCI/ADR-RES
MDA-MB-435 = tested on: MDA-MB-435
HCC 2998 = tested on: HCC 2998

`CC(C)C(Sc1nc(-c2ccccc2)c(-c2ccccc2)[nH]1)C(=O)N/N=C/c1ccc(Cl)cc1` (configuration not stated) was tested, and the GI50 (SF-295) was 22.8 µM (inactive), the GI50 (KM12) was 19.8 µM (inactive) and the GI50 (DMS-273) was 18.2 µM (inactive). The GI50 (RPMI-8226) was 19.7 µM (inactive), the GI50 (M14) was 17.7 µM (inactive) and the GI50 (CAKI-1) was 44.5 µM (inactive). The GI50 (SK-OV-3) was 27.2 µM (inactive), the GI50 (SK-MEL-5) was 16.7 µM (inactive) and the GI50 (SNB-75) was 29.3 µM (inactive). For the same molecule, the GI50 (TK-10) was 21.5 µM (inactive), the GI50 (SN12C) was 17.5 µM (inactive) and the GI50 (LXFL 529) was 32.1 µM (inactive). For the same molecule, the GI50 (IGROV-1) was 24 µM (inactive), the GI50 (DLD-1) was 36.1 µM (inactive) and the GI50 (NCI-H226) was 17.2 µM (inactive). The GI50 (SF-268) was 20.9 µM (inactive), the GI50 (SR) was 32.4 µM (inactive) and the GI50 (SNB-19) was 36.9 µM (inactive). The GI50 (NCI-H23) was 22.3 µM (inactive), the GI50 (HL-60) was 26.3 µM (inactive) and the GI50 (SK-MEL-28) was 21.8 µM (inactive). For the same molecule, the GI50 (CCRF-CEM) was 21.7 µM (inactive), the GI50 (HCT-116) was 15.8 µM (inactive) and the GI50 (HOP-62) was 23.2 µM (inactive). For the same molecule, the GI50 (HT-29) was 14.9 µM (inactive), the GI50 (SNB-78) was 28.7 µM (inactive) and the GI50 (A549) was 30.8 µM (inactive). The GI50 (SK-MEL-2) was 17.5 µM (inactive), the GI50 (Malme-3M) was 23.7 µM (inactive) and the GI50 (HCT-15) was 17.5 µM. The GI50 (NCI-H460) was 22.7 µM (inactive), the GI50 (OVCAR-8) was 19.7 µM (inactive) and the GI50 (OVCAR-4) was 27.7 µM (inactive). For the same molecule, the GI50 (A498) was 22 µM (inactive), the GI50 (786-0) was 21.6 µM (inactive) and the GI50 (SW-620) was 26.2 µM (inactive). For the same molecule, the GI50 (UACC-62) was 22.8 µM (inactive), the GI50 (DMS-114) was 24.3 µM (inactive) and the GI50 (COLO 205) was 17.7 µM (inactive). For the same molecule, the GI50 (NCI-H522) was 20.7 µM (inactive), the GI50 (UACC-257) was 21 µM (inactive) and the GI50 (ACHN) was 31.9 µM (inactive). For the same molecule, the GI50 (M19-MEL) was 19.4 µM (inactive), the GI50 (EKVX) was 22.1 µM (inactive) and the GI50 (KM-20L2) was 20.6 µM (inactive). For the same molecule, the GI50 (MOLT-4) was 0.0382 µM (active), the GI50 (OVCAR-5) was 22.6 µM (inactive) and the GI50 (HOP-92) was 21 µM (inactive). The GI50 (UO-31) was 19.5 µM (inactive), the GI50 (OVCAR-3) was 18.2 µM (inactive) and the GI50 (SF-539) was 21.1 µM (inactive). For the same molecule, the GI50 (U-251) was 21.7 µM (inactive) and the GI50 (LOX IMVI) was 15.5 µM (inactive).
For `CN(C)/C=N/S(=O)(=O)c1nn2c(C=O)c(-c3cc4ccccc4oc3=O)nc2s1`, the GI50 (SF-295) was > 44.1 µM (inactive), the GI50 (RXF 393) was 2.58 µM (inactive) and the GI50 (KM12) was 12.1 µM (inactive). The GI50 (RPMI-8226) was 1.39 µM (inactive), the GI50 (M14) was 7.83 µM (inactive) and the GI50 (CAKI-1) was 1.75 µM (inactive). The GI50 (T47D) was 4.09 µM (inactive), the GI50 (SK-OV-3) was 39.8 µM (inactive) and the GI50 (PC-3) was 12.4 µM (inactive). For the same molecule, the GI50 (MDA-MB-231) was 10.7 µM (inactive), the GI50 (SK-MEL-5) was 2.77 µM (inactive) and the GI50 (SNB-75) was 27.4 µM (inactive). The GI50 (TK-10) was 3.52 µM (inactive), the GI50 (SN12C) was 5.92 µM (inactive) and the GI50 (DU-145) was 5.56 µM (inactive). The GI50 (IGROV-1) was 9.4 µM (inactive), the GI50 (NCI-H226) was 15.2 µM (inactive) and the GI50 (SF-268) was 11.1 µM (inactive). For the same molecule, the GI50 (SR) was 5.73 µM (inactive), the GI50 (SNB-19) was 39.4 µM (inactive) and the GI50 (NCI-H23) was 9.68 µM (inactive). For the same molecule, the GI50 (HL-60) was 1.61 µM (inactive), the GI50 (MDA-N) was 4.46 µM (inactive) and the GI50 (SK-MEL-28) was 2.38 µM (inactive). The GI50 (BT-549) was 8.65 µM (inactive), the GI50 (CCRF-CEM) was 0.276 µM (active) and the GI50 (HCT-116) was 1.79 µM (inactive). For the same molecule, the GI50 (HOP-62) was > 30.2 µM (inactive), the GI50 (HT-29) was 0.918 µM (active) and the GI50 (Hs-578T) was 15.6 µM (inactive). For the same molecule, the GI50 (A549) was 13 µM (inactive), the GI50 (SK-MEL-2) was 11.9 µM (inactive) and the GI50 (Malme-3M) was 1.95 µM (inactive). The GI50 (HCT-15) was 3.4 µM, the GI50 (NCI-H460) was 19.3 µM (inactive) and the GI50 (MCF7) was 3.54 µM (inactive). The GI50 (OVCAR-8) was 3.72 µM (inactive), the GI50 (OVCAR-4) was 8.38 µM (inactive) and the GI50 (A498) was 22.3 µM (inactive). For the same molecule, the GI50 (786-0) was 1.92 µM (inactive), the GI50 (K562) was 1.58 µM (inactive) and the GI50 (SW-620) was 2.18 µM (inactive). For the same molecule, the GI50 (UACC-62) was 7.28 µM (inactive), the GI50 (NCI/ADR-RES) was 16.4 µM (inactive) and the GI50 (COLO 205) was 1.91 µM (inactive). The GI50 (NCI-H522) was 1.16 µM (inactive), the GI50 (UACC-257) was 11.8 µM (inactive) and the GI50 (ACHN) was 1.77 µM (inactive). For the same molecule, the GI50 (EKVX) was 10.4 µM (inactive), the GI50 (MDA-MB-435) was 5.25 µM (inactive) and the GI50 (HCC 2998) was 19.5 µM (inactive). For the same molecule, the GI50 (MOLT-4) was 1.89 µM (inactive), the GI50 (OVCAR-5) was 14.6 µM (inactive) and the GI50 (HOP-92) was 4.08 µM (inactive). For the same molecule, the GI50 (UO-31) was 1.51 µM (inactive), the GI50 (OVCAR-3) was 3.08 µM (inactive) and the GI50 (SF-539) was 4.53 µM (inactive). For the same molecule, the GI50 (U-251) was 8.09 µM (inactive) and the GI50 (LOX IMVI) was 2.65 µM (inactive).
